Molecular target: T1, p53 Y220C (Homo sapiens, UniProt P04637, Y220C)
T1 construct: The recombinant protein was a truncation mutant containing only amino acids 94-312 of p53; made in house; host or cells: E. coli
Experiment: In vitro DNA binding activity assay (HTRF / TR-FRET): stabilization of p53 Y220C and increase of its DNA binding activity
Type: biochemical
Conditions: recombinant His-tagged p53 Y220C DNA binding domain (aa 94-312), biotin-labeled consensus DNA, incubated at 27° C. or 29° C. for 60 min
How it was run: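 His-tagged p53 Y220C, E. coli-expressed, binding biotin-labeled consensus DNA measured by HTRF (anti-His-APC, streptavidin-europium). Compounds from 4.5 mM DMSO stocks, 3-fold serial dilutions; incubations at room temperature 15 min, then 20 min. SC150 = concentration raising DNA binding by 50%.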

T1 sequence (P04637 94-312, change not shown): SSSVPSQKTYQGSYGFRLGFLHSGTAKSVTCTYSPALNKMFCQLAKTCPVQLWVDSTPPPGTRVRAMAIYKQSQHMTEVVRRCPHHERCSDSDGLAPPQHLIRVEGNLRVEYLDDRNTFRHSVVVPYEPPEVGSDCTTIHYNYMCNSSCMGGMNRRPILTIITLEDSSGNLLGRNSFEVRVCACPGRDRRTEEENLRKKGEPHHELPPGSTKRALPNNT

Row | SC150 (concentration of the compound required to increase the DNA binding activity by 50%) | SMILES
1 | + (+ = 0 μM ≤ SC150 < 0.05 μM) | CCC(=O)OCCN1CCC(Nc2cccc3c2cc(C#CCNc2ccc(S(C)(=O)=O)cc2OC)n3CC(F)(F)F)CC1 [Compound 585A, 2-{4-[(2-{3-[(4-methanesulfonyl-2-methoxyphenyl)amino]prop-1-yn-1-yl}-1-(2,2,2-trifluoroethyl)-1H-indol-4-yl)amino]piperidin-1-yl}ethyl propanoate]
2 | + (+ = 0 μM ≤ SC150 < 0.05 μM) | CCC(=O)OCC(CN1CCC(Nc2cccc3c2cc(C#CCNc2ccc(S(C)(=O)=O)cc2OC)n3CC(F)(F)F)CC1)OC(=O)CC (stereo not shown) [Compound 586A, 1-{4-[(2-{3-[(4-methanesulfonyl-2-methoxyphenyl)amino]prop-1-yn-1-yl}-1-(2,2,2-trifluoroethyl)-1H-indol-4-yl)amino]piperidin-1-yl}-3-(propanoyloxy)propan-2-yl propanoate]
3 | + (+ = 0 μM ≤ SC150 < 0.05 μM) | CCC(=O)OCC(CN1CCC(Nc2cccc3c2cc(C#CCNc2ccc(S(N)(=O)=O)cc2OC)n3CC(F)(F)F)CC1)OC(=O)CC (stereo not shown) [Compound 587A, 1-{4-[(2-{3-[(2-methoxy-4-sulfamoylphenyl)amino]prop-1-yn-1-yl}-1-(2,2,2-trifluoroethyl)-1H-indol-4-yl)amino]piperidin-1-yl}-3-(propanoyloxy)propan-2-yl propanoate]
4 | +++ (+++ = 0.1 μM ≤ SC150 < 0.2 μM) | COc1cc(S(C)(=O)=O)ccc1NCC#Cc1cc2c(NC3CCN(CC(COC(=O)C(C)C)OC(=O)C(C)C)CC3)cccc2n1CC(F)(F)F (stereo not shown) [Compound 588A, 1-{4-[(2-{3-[(4-methanesulfonyl-2-methoxyphenyl)amino]prop-1-yn-1-yl}-1-(2,2,2-trifluoroethyl)-1H-indol-4-yl)amino]piperidin-1-yl}-3-[(2-methylpropanoyl)oxy]propan-2-yl 2-methylpropanoate]
5 | ++ (++ = 0.05 μM ≤ SC150 < 0.1 μM) | COc1cc(S(N)(=O)=O)ccc1NCC#Cc1cc2c(NC3CCN(CC(COC(=O)C(C)C)OC(=O)C(C)C)CC3)cccc2n1CC(F)(F)F (stereo not shown) [Compound 589A, 1-{4-[(2-{3-[(2-methoxy-4-sulfamoylphenyl)amino]prop-1-yn-1-yl}-1-(2,2,2-trifluoroethyl)-1H-indol-4-yl)amino]piperidin-1-yl}-3-[(2-methylpropanoyl)oxy]propan-2-yl 2-methylpropanoate]
6 | + (+ = 0 μM ≤ SC150 < 0.05 μM) | COc1cc(S(C)(=O)=O)ccc1NCC#Cc1cc2c(NC3CCN(CC(O)COC(=O)C(C)C)CC3)cccc2n1CC(F)(F)F (stereo not shown) [Compound 592A, 2-hydroxy-3-{4-[(2-{3-[(4-methanesulfonyl-2-methoxyphenyl)amino]prop-1-yn-1-yl}-1-(2,2,2-trifluoroethyl)-1H-indol-4-yl)amino]piperidin-1-yl}propyl 2-methylpropanoate]
7 | + (+ = 0 μM ≤ SC150 < 0.05 μM) | COCC(CN1CCC(Nc2cccc3c2cc(C#CCNc2ccc(S(C)(=O)=O)cc2OC)n3CC(F)(F)F)CC1)OC(C)=O (stereo not shown) [Compound 593A, 1-{4-[(2-{3-[(4-methanesulfonyl-2-methoxyphenyl)amino]prop-1-yn-1-yl}-1-(2,2,2-trifluoroethyl)-1H-indol-4-yl)amino]piperidin-1-yl}-3-methoxypropan-2-yl acetate]
8 | + (+ = 0 μM ≤ SC150 < 0.05 μM) | CCC(=O)OCC(O)CN1CCC(Nc2cccc3c2cc(C#CCNc2ccc(S(C)(=O)=O)cc2OC)n3CC(F)(F)F)CC1 (stereo not shown) [Compound 594A]
9 | + (+ = 0 μM ≤ SC150 < 0.05 μM) | COc1cc(S(=O)(=O)N(CCO)CCO)ccc1NCC#Cc1cc2c(NC3CCN(CC(C)O)CC3)cccc2n1CC(F)(F)F (stereo not shown) [Compound 595A, N,N-bis(2-hydroxyethyl)-4-{[3-(4-{[1-(2-hydroxypropyl)piperidin-4-yl]amino}-1-(2,2,2-trifluoroethyl)-1H-indol-2-yl)prop-2-yn-1-yl]amino}-3-methoxybenzene-1-sulfonamide]
10 | + (+ = 0 μM ≤ SC150 < 0.05 μM) | CNC(=O)c1ccc(NCC#Cc2cc3c(NC4CCN(CC(C)O)CC4)cccc3n2CC(F)(F)F)c(OC)c1 (stereo not shown) [Compound 596A, 4-{[3-(4-{[1-(2-hydroxypropyl)piperidin-4-yl]amino}-1-(2,2,2-trifluoroethyl)-1H-indol-2-yl)prop-2-yn-1-yl]amino}-3-methoxy-N-methylbenzamide]
11 | + (+ = 0 μM ≤ SC150 < 0.05 μM) | COc1cc(S(N)(=O)=O)ccc1NCC#Cc1cc2c(NC3CCN(CC(C)OC(=O)C(C)C)CC3)cccc2n1CC(F)(F)F (stereo not shown) [Compound 598A, 1-{4-[(2-{3-[(2-methoxy-4-sulfamoylphenyl)amino]prop-1-yn-1-yl}-1-(2,2,2-trifluoroethyl)-1H-indol-4-yl)amino]piperidin-1-yl}propan-2-yl 2-methylpropanoate]
12 | + (+ = 0 μM ≤ SC150 < 0.05 μM) | COc1cc(S(N)(=O)=O)ccc1NCC#Cc1cc2c(NC3CCN(CC(C)OC(C)=O)CC3)cccc2n1CC(F)(F)F (stereo not shown) [Compound 599A, 1-{4-[(2-{3-[(2-methoxy-4-sulfamoylphenyl)amino]prop-1-yn-1-yl}-1-(2,2,2-trifluoroethyl)-1H-indol-4-yl)amino]piperidin-1-yl}propan-2-yl acetate]
13 | + (+ = 0 μM ≤ SC150 < 0.05 μM) | COc1cc(S(N)(=O)=O)ccc1NCC#Cc1cc2c(NC3CCN(CCOC(=O)C(C)C)CC3)cccc2n1CC(F)(F)F [Compound 600A, 2-{4-[(2-{3-[(2-methoxy-4-sulfamoylphenyl)amino]prop-1-yn-1-yl}-1-(2,2,2-trifluoroethyl)-1H-indol-4-yl)amino]piperidin-1-yl}EtOAc]
14 | + (+ = 0 μM ≤ SC150 < 0.05 μM) | CNC(=O)c1ccc(NCC#Cc2cc3c(NC4CCN(CC(O)COC)CC4)cccc3n2CC(F)(F)F)c(OC)c1 (stereo not shown) [Compound 601A, 4-{[3-(4-{[1-(2-hydroxy-3-methoxypropyl)piperidin-4-yl]amino}-1-(2,2,2-trifluoroethyl)-1H-indol-2-yl)prop-2-yn-1-yl]amino}-3-methoxy-N-methylbenzamide]
15 | + (+ = 0 μM ≤ SC150 < 0.05 μM) | CCC(=O)OC(COC)CN1CCC(Nc2cccc3c2cc(C#CCNc2ccc(S(C)(=O)=O)cc2OC)n3CC(F)(F)F)CC1 (stereo not shown) [Compound 602A, 1-{4-[(2-{3-[(4-methanesulfonyl-2-methoxyphenyl)amino]prop-1-yn-1-yl}-1-(2,2,2-trifluoroethyl)-1H-indol-4-yl)amino]piperidin-1-yl}-3-methoxypropan-2-yl propanoate]
16 | + (+ = 0 μM ≤ SC150 < 0.05 μM) | COCC(CN1CCC(Nc2cccc3c2cc(C#CCNc2ccc(S(C)(=O)=O)cc2OC)n3CC(F)(F)F)CC1)OC(=O)C(C)C (stereo not shown) [Compound 603A, 1-{4-[(2-{3-[(4-methanesulfonyl-2-methoxyphenyl)amino]prop-1-yn-1-yl}-1-(2,2,2-trifluoroethyl)-1H-indol-4-yl)amino]piperidin-1-yl}-3-methoxypropan-2-yl 2-methylpropanoate]
17 | + (+ = 0 μM ≤ SC150 < 0.05 μM) | COCC(CN1CCC(Nc2cccc3c2cc(C#CCNc2ccc(S(N)(=O)=O)cc2OC)n3CC(F)(F)F)CC1)OC(=O)C(C)C (stereo not shown) [Compound 604A, 1-methoxy-3-{4-[(2-{3-[(2-methoxy-4-sulfamoylphenyl)amino]prop-1-yn-1-yl}-1-(2,2,2-trifluoroethyl)-1H-indol-4-yl)amino]piperidin-1-yl}propan-2-yl 2-methylpropanoate]
18 | + (+ = 0 μM ≤ SC150 < 0.05 μM) | CCC(=O)OC(C)CN1CCC(Nc2cccc3c2cc(C#CCNc2ccc(S(N)(=O)=O)cc2OC)n3CC(F)(F)F)CC1 (stereo not shown) [Compound 605A, 1-{4-[(2-{3-[(2-methoxy-4-sulfamoylphenyl)amino]prop-1-yn-1-yl}-1-(2,2,2-trifluoroethyl)-1H-indol-4-yl)amino]piperidin-1-yl} propan-2-yl propanoate]
19 | + (+ = 0 μM ≤ SC150 < 0.05 μM) | COCC(O)CN1CCC(Nc2cccc3c2cc(C#CCNc2ccc(S(=O)(=O)NC(C)=O)cc2OC)n3CC(F)(F)F)CC1 (stereo not shown) [Compound 606A, N-(4-{[3-(4-{[1-(2-hydroxy-3-methoxypropyl)pipcridin-4-yl]amino}-1-(2,2,2-trifluoroethyl)-1H-indol-2-yl)prop-2-yn-1-yl]amino}-3-methoxybenzenesulfonyl) acetamide]
20 | + (+ = 0 μM ≤ SC150 < 0.05 μM) | CCC(=O)NS(=O)(=O)c1ccc(NCC#Cc2cc3c(NC4CCN(CC(O)COC)CC4)cccc3n2CC(F)(F)F)c(OC)c1 (stereo not shown) [Compound 607A, N-(4-{[3-(4-{[1-(2-hydroxy-3-methoxypropyl)piperidin-4-yl]amino}-1-(2,2,2-trifluoroethyl)-1H-indol-2-yl)prop-2-yn-1-yl]amino}-3-methoxybenzenesulfonyl) propanamide]
21 | + (+ = 0 μM ≤ SC150 < 0.05 μM) | CCC(=O)OCCN1CCC(Nc2cccc3c2cc(C#CCNc2ccc(S(N)(=O)=O)cc2OC)n3CC(F)(F)F)CC1 [Compound 608A, 2-{4-[(2-{3-[(2-methoxy-4-sulfamoylphenyl)amino]prop-1-yn-1-yl}-1-(2,2,2-trifluoroethyl)-1H-indol-4-yl)amino]piperidin-1-yl}ethyl propanoate]
22 | + (+ = 0 μM ≤ SC150 < 0.05 μM) | CNS(=O)(=O)c1ccc(NCC#Cc2cc3c(NC4CCN(CC(O)COC)CC4)cccc3n2CC(F)(F)F)c(OC)c1 (stereo not shown) [Compound 609A]

Reference: US12428406B2 (PMV Pharmaceuticals, Inc., priority 2019, dated 2025)
